Experimental data published in PubChem BioAssay AID2060325 (Molecular Pharmacology Branch, DTP, NCI, 2025).
Several values for one entry are separate records, joined by “and”; a condition that tells them apart may be missing. Equal values may be shown once.

System: SK-OV-3 multi-cell spheroids, viability
Assay: Anticancer human tumor SK-OV-3 cell line growth inhibition [IpAb];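 as to viability, T/C: viability read after seven days of drug exposure; percent of DMSO vehicle control luminescence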
Conditions: for viability, T/C: stronger effect = lower value
Summary of the method: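 Spheroids of 60% malignant cells, 25% HUVEC and 15% MSC were exposed to targeted agents combined with ipatasertib or abemaciclib. Doses started at or near clinical Cmax (10 microM when unknown) and fell in half-log steps.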

[1] = curve of first compound, second compound 0.01 µM
[2] = curve of first compound, second compound 0.0316 µM
[3] = curve of first compound, second compound 0.1 µM
[4] = curve of first compound, second compound 0.316 µM
[5] = curve of first compound, second compound 1 µM
[6] = second compound 0.01 µM, first compound 0.00316 µM
[7] = second compound 0.01 µM, first compound 0.01 µM
[8] = second compound 0.01 µM, first compound 0.0316 µM
[9] = second compound 0.01 µM, first compound 0.1 µM
[10] = second compound 0.01 µM, first compound 0.316 µM
[11] = second compound 0.01 µM, first compound 1 µM
[12] = second compound 0.0316 µM, first compound 0.00316 µM
[13] = second compound 0.0316 µM, first compound 0.01 µM
[14] = second compound 0.0316 µM, first compound 0.0316 µM
[15] = second compound 0.0316 µM, first compound 0.1 µM
[16] = second compound 0.0316 µM, first compound 0.316 µM
[17] = second compound 0.0316 µM, first compound 1 µM
[18] = second compound 0.1 µM, first compound 0.00316 µM
[19] = second compound 0.1 µM, first compound 0.01 µM
[20] = second compound 0.1 µM, first compound 0.0316 µM
[21] = second compound 0.1 µM, first compound 0.1 µM
[22] = second compound 0.1 µM, first compound 0.316 µM
[23] = second compound 0.1 µM, first compound 1 µM
[24] = second compound 0.316 µM, first compound 0.00316 µM
[25] = second compound 0.316 µM, first compound 0.01 µM
[26] = second compound 0.316 µM, first compound 0.0316 µM
[27] = second compound 0.316 µM, first compound 0.1 µM
[28] = second compound 0.316 µM, first compound 0.316 µM
[29] = second compound 0.316 µM, first compound 1 µM
[30] = second compound 1 µM, first compound 0.00316 µM
[31] = second compound 1 µM, first compound 0.01 µM
[32] = second compound 1 µM, first compound 0.0316 µM
[33] = second compound 1 µM, first compound 0.1 µM
[34] = second compound 1 µM, first compound 0.316 µM
[35] = second compound 1 µM, first compound 1 µM

COc1c(OCCCN2CCOCC2)ccc2c3n(c(=NC(=O)c4cnc(N)nc4)nc12)CCN3 + CCN1CCN(Cc2ccc(Nc3ncc(F)c(-c4cc(F)c5nc(C)n(C(C)C)c5c4)n3)nc2)CC1
IC50 [1]: 6.39 nM
IC50 [2]: 4.18 nM
IC50 [3]: < 3.16 nM
IC50 [4]: < 3.16 nM
IC50 [5]: < 3.16 nM
viability, T/C [6]: 68%
viability, T/C [7]: 38.6%
viability, T/C [8]: 12.6%
viability, T/C [9]: 7.16%
viability, T/C [10]: 5.33%
viability, T/C [11]: 3.04%
viability, T/C [12]: 56.2%
viability, T/C [13]: 30.5%
viability, T/C [14]: 9.9%
viability, T/C [15]: 6.3%
viability, T/C [16]: 5%
viability, T/C [17]: 2.92%
viability, T/C [18]: 43%
viability, T/C [19]: 23.7%
viability, T/C [20]: 10.4%
viability, T/C [21]: 5.9%
viability, T/C [22]: 5.13%
viability, T/C [23]: 2.59%
viability, T/C [24]: 42.1%
viability, T/C [25]: 22.4%
viability, T/C [26]: 9.73%
viability, T/C [27]: 6.47%
viability, T/C [28]: 5.55%
viability, T/C [29]: 3.33%
viability, T/C [30]: 40.2%
viability, T/C [31]: 23.2%
viability, T/C [32]: 10.2%
viability, T/C [33]: 6.83%
viability, T/C [34]: 5.51%
viability, T/C [35]: 4.14%

CC(C)n1nc(-c2ccc3oc(N)nc3c2)c2c(N)ncnc21
viability, T/C (compound 0.000316 µM): 90.3% and 86.6%
viability, T/C (compound 0.001 µM): 71.8% and 76.2%
viability, T/C (compound 0.00316 µM): 37.6% and 42.3%
viability, T/C (compound 0.01 µM): 19.2% and 21.4%
viability, T/C (compound 0.0316 µM): 10.8% and 11.2%
viability, T/C (compound 0.1 µM): 7.02% and 7.25%
IC50 (curve of compound): 2.13 nM and 2.54 nM

CC(C)(C)c1cnc(CSc2cnc(NC(=O)C3CCNCC3)s2)o1 + CCN1CCN(Cc2ccc(Nc3ncc(F)c(-c4cc(F)c5nc(C)n(C(C)C)c5c4)n3)nc2)CC1
IC50 [1]: 196 nM
IC50 [2]: 168 nM
IC50 [3]: 147 nM
IC50 [4]: 129 nM
IC50 [5]: < 9.49 nM
viability, T/C (second compound 0.01 µM, first compound 0.00949 µM): 99.3%
viability, T/C (second compound 0.01 µM, first compound 0.03 µM): 109%
viability, T/C (second compound 0.01 µM, first compound 0.0949 µM): 104%
viability, T/C (second compound 0.01 µM, first compound 0.3 µM): 18.4%
viability, T/C (second compound 0.01 µM, first compound 0.949 µM): 0.62%
viability, T/C (second compound 0.01 µM, first compound 3 µM): 1.2%
viability, T/C (second compound 0.0316 µM, first compound 0.00949 µM): 80.2%
viability, T/C (second compound 0.0316 µM, first compound 0.03 µM): 87.8%
viability, T/C (second compound 0.0316 µM, first compound 0.0949 µM): 88.3%
viability, T/C (second compound 0.0316 µM, first compound 0.3 µM): 14%
viability, T/C (second compound 0.0316 µM, first compound 0.949 µM): 1.38%
viability, T/C (second compound 0.0316 µM, first compound 3 µM): 1.32%
viability, T/C (second compound 0.1 µM, first compound 0.00949 µM): 63%
viability, T/C (second compound 0.1 µM, first compound 0.03 µM): 70.4%
viability, T/C (second compound 0.1 µM, first compound 0.0949 µM): 80.5%
viability, T/C (second compound 0.1 µM, first compound 0.3 µM): 15.7%
viability, T/C (second compound 0.1 µM, first compound 0.949 µM): 0.84%
viability, T/C (second compound 0.1 µM, first compound 3 µM): 0.9%
viability, T/C (second compound 0.316 µM, first compound 0.00949 µM): 60.1%
viability, T/C (second compound 0.316 µM, first compound 0.03 µM): 62%
viability, T/C (second compound 0.316 µM, first compound 0.0949 µM): 63.4%
viability, T/C (second compound 0.316 µM, first compound 0.3 µM): 17.3%
viability, T/C (second compound 0.316 µM, first compound 0.949 µM): 0.83%
viability, T/C (second compound 0.316 µM, first compound 3 µM): 1.1%
viability, T/C (second compound 1 µM, first compound 0.00949 µM): 44.7%
viability, T/C (second compound 1 µM, first compound 0.03 µM): 51.1%
viability, T/C (second compound 1 µM, first compound 0.0949 µM): 50.1%
viability, T/C (second compound 1 µM, first compound 0.3 µM): 12.7%
viability, T/C (second compound 1 µM, first compound 0.949 µM): 1.41%
viability, T/C (second compound 1 µM, first compound 3 µM): 1.15%

Cn1ncc(Cl)c1-c1cc(C(=O)NC(CN)Cc2cccc(F)c2)sc1Cl (configuration not stated) + CCN1CCN(Cc2ccc(Nc3ncc(F)c(-c4cc(F)c5nc(C)n(C(C)C)c5c4)n3)nc2)CC1
IC50 [1]: 66 nM
IC50 [2]: 34.7 nM
IC50 [3]: < 31.6 nM
IC50 [4]: < 31.6 nM
IC50 [5]: < 31.6 nM
viability, T/C [8]: 66.5%
viability, T/C [9]: 41%
viability, T/C [10]: 22.1%
viability, T/C [11]: 14.1%
viability, T/C (second compound 0.01 µM, first compound 3.16 µM): 6.99%
viability, T/C (second compound 0.01 µM, first compound 10 µM): 0.34%
viability, T/C [14]: 52.8%
viability, T/C [15]: 30.6%
viability, T/C [16]: 22.3%
viability, T/C [17]: 13.8%
viability, T/C (second compound 0.0316 µM, first compound 3.16 µM): 7.67%
viability, T/C (second compound 0.0316 µM, first compound 10 µM): 0.51%
viability, T/C [20]: 42.7%
viability, T/C [21]: 26.7%
viability, T/C [22]: 18.1%
viability, T/C [23]: 12.9%
viability, T/C (second compound 0.1 µM, first compound 3.16 µM): 7.38%
viability, T/C (second compound 0.1 µM, first compound 10 µM): 0.3%
viability, T/C [26]: 43.3%
viability, T/C [27]: 29.8%
viability, T/C [28]: 20%
viability, T/C [29]: 15.1%
viability, T/C (second compound 0.316 µM, first compound 3.16 µM): 8.84%
viability, T/C (second compound 0.316 µM, first compound 10 µM): 0.17%
viability, T/C [32]: 36.3%
viability, T/C [33]: 34.7%
viability, T/C [34]: 24.4%
viability, T/C [35]: 17.8%
viability, T/C (second compound 1 µM, first compound 3.16 µM): 12.2%
viability, T/C (second compound 1 µM, first compound 10 µM): 0.39%

CC(C)n1nc(-c2ccc3oc(N)nc3c2)c2c(N)ncnc21 + CCN1CCN(Cc2ccc(Nc3ncc(F)c(-c4cc(F)c5nc(C)n(C(C)C)c5c4)n3)nc2)CC1
IC50 [1]: 1.65 nM
IC50 [2]: 1.23 nM
IC50 [3]: 0.577 nM
IC50 [4]: 0.381 nM
IC50 [5]: < 0.316 nM
viability, T/C (second compound 0.01 µM, first compound 0.000316 µM): 76.7%
viability, T/C (second compound 0.01 µM, first compound 0.001 µM): 59.3%
viability, T/C [6]: 37.8%
viability, T/C [7]: 19%
viability, T/C [8]: 8.77%
viability, T/C [9]: 7.65%
viability, T/C (second compound 0.0316 µM, first compound 0.000316 µM): 64.4%
viability, T/C (second compound 0.0316 µM, first compound 0.001 µM): 54.8%
viability, T/C [12]: 31.3%
viability, T/C [13]: 16.1%
viability, T/C [14]: 11.6%
viability, T/C [15]: 7.01%
viability, T/C (second compound 0.1 µM, first compound 0.000316 µM): 55.4%
viability, T/C (second compound 0.1 µM, first compound 0.001 µM): 45.4%
viability, T/C [18]: 28.1%
viability, T/C [19]: 16%
viability, T/C [20]: 10.8%
viability, T/C [21]: 7.2%
viability, T/C (second compound 0.316 µM, first compound 0.000316 µM): 51.5%
viability, T/C (second compound 0.316 µM, first compound 0.001 µM): 41.4%
viability, T/C [24]: 26.2%
viability, T/C [25]: 18.1%
viability, T/C [26]: 14.3%
viability, T/C [27]: 9.24%
viability, T/C (second compound 1 µM, first compound 0.000316 µM): 40.7%
viability, T/C (second compound 1 µM, first compound 0.001 µM): 34.2%
viability, T/C [30]: 27.9%
viability, T/C [31]: 21.2%
viability, T/C [32]: 15.9%
viability, T/C [33]: 13.2%
